These are literature values, as cited in US20230117236A1 (priority 2021, published 2023).

The subject of the data set is SARS-CoV-2. To be noted: treatment with 24 ppm of chlorine dioxide; within 10 seconds.

In the case of `[O][Cl+][O-]` [chlorine dioxide], the SARS-CoV-2 inactivated entry is given as “more than 99.99%”.
